Assay results as given in publication PMC9503459, “Antifungal Activity, Structural Stability, and Immunomodulatory Effects on Human Immune Cells of Defensin from the Lentil Lens culinaris” (Membranes, 2022).
No end group written: not given here.

Assays:
[1] = system: pepsin, trypsin, α-chymotrypsin; assay: Simulated gastrointestinal digestion in vitro; format: in vitro ADME, porcine pepsin and trypsin, bovine α-chymotrypsin
Text: Digestive enzymes (porcine pepsin and trypsin, bovine α-chymotrypsin), model protein substrate bovine α-casein, and secondary anti-rabbit IgG polyclonal goat antibodies conjugated to HRP and 3,3′,5,5′-tetramethylbenzidine (TMB) substrates were purchased from Sigma-Aldrich (St. Louis, MO, USA). Synthetic lysophospholipids (lyso-palmitoyl phosphatidylcholine (LPPC), lyso-palmitoyl phosphatidylglycerol (LPPG)) were purchased from Avanti Polar Lipids (Alabaster, AL, USA).
Sensitivity of Lc-def to digestive enzymes was examined by simulation of its gastrointestinal digestion in vitro. Gastric digestion was performed for 2 h, using 50 ng of pepsin per 1 μg of preheated at 100 °C for 30 min and intact Lc-def in 0.1 M HCl, pH 2.0. For duodenal digestion, the pH of the mixture resulting from gastric digestion was adjusted to 8.0 by addition of ammonium bicarbonate. The obtained mixture was incubated for 24 h at 37 °C with 2.5 ng of trypsin and 10 ng of α-chymotrypsin per 1 μg of the defensin. The degree of proteolysis was monitored by SDS-PAGE and RP-HPLC. Gel analysis was performed using Gel Doc XR^+ imaging system (Bio-Rad, Hercules, CA, USA) and Image Lab Software v.6.1.0 (Bio-Rad, Hercules, CA, USA). Some independent experiments were performed in each case. The experiment with α-casein was carried out for comparison.

[2] = system: monocyte-derived mature dendritic cells (moDCs); assay: Cytokine response by multiplex xMAP, moDCs; format: cell-based, human; details: 2 µM, 24 h
Procedure: Colorectal adenocarcinoma Caco-2 cell line (ATCC HTB-37) was cultured in complete DMEM/F12 (1:1) medium containing 10% fetal bovine serum (FBS, Gibco) and 1X antibiotic-antimycotic solution (1XAAS, Invitrogen, Waltham, MA, USA). The acute monocytic leukemia THP-1 line (ATCC TIB-202) was cultured in complete RPMI-1640 medium, containing 10% FBS, 1XAAS, and […]. THP-1 cells were differentiated into pro-inflammatory macrophages (Mφ1) with phorbol 12-myristate 13-acetate (Sigma-Aldrich) for 24 h and subsequently polarized with lipopolysaccharide from E. coli (Sigma-Aldrich) and rhIFN-γ (Sigma-Aldrich) for another 48 h according to previously reported protocol. All cells were cultured in a humidified CO2 incubator (5% CO2, 37 °C). Primary peripheral blood mononuclear cells (PBMCs) collected from a healthy donor were purchased from American Type Culture Collection (ATCC PCS-800-011). CD4^+ T-helper and CD8^+ T cytotoxic cells were isolated from PBMCs by magnetic separation with mouse anti-human CD4-PE (clone 13B8.2, Beckman Coulter Diagnostics, Pasadena, CA, USA) and CD8-PE (clone REA734, Miltenyi Biotec, Bergisch Gladbach, Germany), Anti-PE MicroBeads (Miltenyi Biotec), and LS Separation Columns (Miltenyi Biotec). Isolated CD4^+ and CD8^+ cells were expanded separately with Dynabeads™ Human T-Expander CD3/CD28 (Gibco, Waltham, MA, USA) in RPMI-1640 supplemented with 10% FBS, 1XAAS and 100 U/mL rh-IL-2 (Gibco). Regulatory CD4^+ FoxP3^+ T cells (Tregs) were isolated from PBMCs by magnetic separation with CD4^+CD25^+ Regulatory T Cell Isolation Kit, human (Miltenyi Biotec). Primary CD14^+ blood monocytes were isolated from PBMCs by adherence according to standard technique. Monocyte-derived mature dendritic cells (moDCs) were obtained from CD14^+ blood monocytes according to the previously reported protocol. Briefly, blood monocytes were incubated in complete RPMI-1640 medium, containing 10% FBS, 1XAAS, 800 U/mL rhGM-CSF (Sci-Store, Russia, Moscow) and 500 U/mL rhIL-4 (Sci-Store) for 3 days. Fresh complete RPMI-1640 medium with rhGM-CSF and rhIL-4 was added to the culture on day 3. On day 5, fresh complete RPMI-1640 containing 100 U/mL rhTNF-α (Sigma) as well as 800 U/mL rhGM-CSF and 500 U/mL rhIL-4 was added and the culture was incubated for another 4 days until full maturation.
Caco-2 cells were seeded into the wells of a 48-well plate, coated with 0.1% bovine collagen (Sigma-Aldrich) for 24 h, 3 weeks before the experiment with complete DMEM/F12 (1:1) medium renewal every 2–3 days. Monocytes, moDCs, CD4^+ T-helper and CD8^+ T cytotoxic cells, Mφ1, and Regulatory CD4^+ FoxP3^+ T cells were seeded into the wells of 48-well plates in the complete RPMI-1640 medium supplemented with 10% Human AB serum (HABS, Capricorn Scientific, Ebsdorfergrund, Germany) and 1XAAS 24 h prior to the experiment; medium in Caco-2-containing wells was also replaced with the same medium. After 24 h, half of the medium in each well was replaced by fresh complete RPMI-1640 medium with 10% HABS, supplemented with 4 µM of Lc-def for the sample wells or fresh medium alone for the control wells. Cell cultures were kept in CO2-incubator (5% CO2, 37 °C) for another 24 h. Culture supernatants were collected 24 h later and stored at −70 °C degrees less than one month prior to the analytes assessment. […]

With “Lc-def: defensin from lentil Lens culinaris seeds (UniProt:B3F051), recombinant, overexpressed in Escherichia coli (KTCENLSDSFKGPCIPDGNCNKHCKEKEHLLSGRCRDDFRCWCTRNC; disulfide (positions not given here); ends not checked; also: disulfide bonds present, pairing not given here; UniProt B3F051 28-74, looked up)” the “degradation after gastrointestinal digestion” value [1] was “approximately 30%”, the EGF [2] was 2.16 pg/mL and the Eotaxin [2] was <3.23↓ pg/ml. The FGF-2 [2] was 34.19 pg/mL, the FLT-3L [2] was 0.84 pg/mL and the Fractalkine [2] was <23.19↓ pg/ml. For the same substance, the G-CSF [2] was 4.71 pg/mL, the GM-CSF [2] was 10.34 pg/mL and the GROa [2] was <0.67↓ pg/ml. The IFNa2 [2] was 7.77 pg/mL, the IFNg [2] was 3.79 pg/mL and the IL-1RA [2] was 37.33 pg/mL. The IL-1a [2] was 20.45 pg/mL, the IL-1b [2] was <18.72↓ pg/ml and the IL-2 [2] was 0.98 pg/mL. The IL-3 [2] was <0.48↓ pg/ml, the IL-4 [2] was <0.31↓ pg/ml and the IL-5 [2] was 2.41 pg/mL. For the same substance, the IL-6 [2] was 1.12 pg/mL, the IL-7 [2] was <0.33↓ pg/ml and the IL-8 [2] was 162.8 pg/mL. The IL-9 [2] was 4.1 pg/mL, the IL-10 [2] was 14.42 pg/mL and the “IL-12 (p40)” value [2] was 19.56 pg/mL. For the same substance, the “IL-12 (p70)” value [2] was <1.48↓ pg/ml, the IL-13 [2] was 11.42 pg/mL and the IL-15 [2] was 15.16 pg/mL. For the same substance, the IL-17A [2] was <1.55↓ pg/ml, the IL-17E/IL-25 [2] was <20.59↓ pg/ml and the IL-17F [2] was <16.96↓ pg/ml. For the same substance, the IL-18 [2] was 2.04 pg/mL, the IL-22 [2] was 9.4 pg/mL and the IL-27 [2] was 51.46 pg/mL. For the same substance, the IP-10 [2] was 1871 pg/mL, the M-GSF [2] was 78 pg/mL and the MCP-1 [2] was 782.17 pg/mL. For the same substance, the MCP-3 [2] was 29.76 pg/mL, the MDC [2] was 1903 pg/mL and the MIG [2] was 33510 pg/mL. It also gave an MIP-1a [2] of 119.77 pg/mL, an MIP-1b [2] of 243.76 pg/mL and a PDGF-AA [2] of 51.36 pg/mL. It also gave a PDGF-AB/BB [2] of 107.03 pg/mL, an RANTES [2] of 15.66 pg/mL and a TGF-a [2] of 75.94 pg/mL. The TNFa [2] was 21.61 pg/mL, the TNFb [2] was <0.73↓ pg/ml and the VEGFa [2] was <1.27↓ pg/ml. For the same substance, the “changes in cytokine profiles” value [2] was “did not induce significant changes” and the sCD40L [2] was 84.33 pg/mL.
